Measured values reported in patent US5405857A, “3-substituted 1,2,3,4,-oxatriazole-5-imine compounds, a process for the preparation thereof and a pharmaceutical preparation containing said compounds” (A/S GEA Farmaceutisk Fabrik, priority 1991, dated 1995).

What was measured:
pre-contracted trachea = test: Relaxation of pre-contracted isolated trachea; parameters: species or system guinea pig; details: Cavia porcellus; carbamylcholine 0.3 μM, Krebs buffer, 37° C.
Method: Compounds according to the invention were tested for their ability to relax a pre-contracted trachea. A contraction of the respiratory passages in combination with a swelling of the mucuos membrane therein presents a vital factor at asthmatic conditions. Relaxation or dilation of the contracted respiratory passages will improve the asthmatic condition.
An isolated trachea from a guinea pig is used. After preparation of a strip which has maintained the circular musculature, the organ is divided into two parts of equal size. The two tracheal strips are suspended in their respective organ bath and connected to a transducer recording the contraction and relaxation of the organ by means of a recorder. The two tracheal strips are continuously bathed in a Krebs buffer at 37° C., constantly bubbled with carbogen (95% O2 and 5% CO2). After an equilibration time of about 3 hours the organs are tested for their sensitivity (contractility) to carbamylcholin a bolus being added directly to the bath (0.3 μM). If the contraction is satisfactory, the organs are transferred to the Krebs buffer containing the same concentration of carbamylcholine. The organs are now constantly exposed to the carbamylcholine and slowly develop a permanent contraction ("asthma"). The test substances are in bolus form added directly to the organ bath. After maximum effect (relaxation) the substances are removed by washing out and the tracheal strip reverts to its permanent contraction state. […] An EC50 -value (that is the concentration relaxing the organ by 50% relative to the maximum relaxation) is calculated for each test substance by means of a linear regression analysis (log concentration (μM) as a constant ad abscissa and % relaxation as variable ad ordinate). Sodium nitroprusside (NNP) and SIN-1 are used as reference substances.

PAI-1 = test: Inhibition of plasminogen activator inhibitor (PAI-1) from blood platelets (fibrinolytic activity); format: cell-based, human; details: 50 μM, 60 minutes
Method: Compounds according to the invention were tested for their inhibition of plasminogen activator inhibitor (PAI). An established thrombus comprises aggregated platelets cohered by fibrin. The organism has a fibrinolyric system for maintaining normal physiological conditions. Endogenous plasminogen is activated to plasmin (fibrinolysin, that is a proteolytic enzyme decomposing fibrin) by means of a tissue plasminogen activator (t-PA). The platelets include the enzyme PAI-1 inhibiting the activation of plasminogen to plasmin, and thus also the decomposition of fibrin.
A general stimulation of the fibrinolytic system can cause serious hemostatic side effects (haemorrhages). A specific inhibition of PAI-1 induces an increased fibrinolysis in areas with many platelets, which is exactly the case in thrombi. As a result a thrombolytic effect is obtained.
Human PRP prepared by slight centrifugation as previously mentioned is used, but at a low temperature (4° C.). By incubation of PRP (1 ml in a plastic tube) during a slight shaking at 37° C. the PAI-1 activity is liberated, said PAI-1 activity being measured spectrophotometrically by means of a two-step procedure using commercial kits (Spectrolyse™/fibrin kit from BIOPOOL, Sweden).
The PAI-1 activity of the control PRP and PRP incubated with each of 6 compounds according to the invention and the reference substance sodium niroprusside (NNP) (50 μM of each for 60 minutes) appear from Table 6.

EC50 (pre-contracted trachea): 2700 nM
SMILES: COc1ccc(Cl)cc1-[n+]1noc([NH-])n1 [Example 20]
% Inhibition of PAI-1 activity (PAI-1; compared to control): 35%
PAI-1 activity (PAI-1; human PRP, control 3.24): 2.09 U/10^8 platelets
